29 compounds from patent publication US11584714B2 (priority 2018, dated 2023) can be followed below.

Structures can show the parent of a compound that is named as a salt. Where two headings read alike, the source gives them in different places. Some results are limits rather than exact numbers.

Type in all cases: biochemical
In one assay the target is MASP-2 (CCP1-CCP2-SP) (Homo sapiens (Human), UniProt O00187). Nature of the assay: biochemical.
In the next assay the target is mMASP-2 (Mus musculus (Mouse), UniProt Q91WP0). The assay is described as follows: Enzymatic inhibition of mMASP-2. The conditions noted are these: read-out: mMASP-2 Ki.
A further assay addresses human α-thrombin (Homo sapiens (Human), UniProt P00734). Nature of the assay: Enzymatic assay for thrombin (Boc-VPR-AMC substrate).
Where [1] appears, read: selectivity for MASP-2 inhibition versus thrombin.
[2] abbreviates: MASP-2 inhibition versus thrombin.

Sequence of mMASP-2 (Q91WP0 20-685): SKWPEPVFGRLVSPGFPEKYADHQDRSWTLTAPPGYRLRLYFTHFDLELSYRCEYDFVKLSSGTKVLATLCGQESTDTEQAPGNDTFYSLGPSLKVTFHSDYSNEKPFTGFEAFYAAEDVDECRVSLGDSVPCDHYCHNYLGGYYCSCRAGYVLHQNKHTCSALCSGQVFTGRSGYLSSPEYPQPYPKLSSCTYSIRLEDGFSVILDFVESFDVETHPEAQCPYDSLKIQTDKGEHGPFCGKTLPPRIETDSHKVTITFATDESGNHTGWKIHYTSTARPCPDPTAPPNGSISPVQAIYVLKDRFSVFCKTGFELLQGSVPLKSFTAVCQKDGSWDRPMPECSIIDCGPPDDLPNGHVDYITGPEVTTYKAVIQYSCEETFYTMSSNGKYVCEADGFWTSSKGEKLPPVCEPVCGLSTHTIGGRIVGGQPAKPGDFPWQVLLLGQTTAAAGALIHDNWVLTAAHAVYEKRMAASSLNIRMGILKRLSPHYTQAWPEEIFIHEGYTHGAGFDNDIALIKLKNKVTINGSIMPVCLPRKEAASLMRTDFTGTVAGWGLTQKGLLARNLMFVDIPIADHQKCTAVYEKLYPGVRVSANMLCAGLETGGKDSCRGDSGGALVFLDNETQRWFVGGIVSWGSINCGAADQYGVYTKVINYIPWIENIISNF
Sequence of MASP-2 (CCP1-CCP2-SP) (O00187 445-686): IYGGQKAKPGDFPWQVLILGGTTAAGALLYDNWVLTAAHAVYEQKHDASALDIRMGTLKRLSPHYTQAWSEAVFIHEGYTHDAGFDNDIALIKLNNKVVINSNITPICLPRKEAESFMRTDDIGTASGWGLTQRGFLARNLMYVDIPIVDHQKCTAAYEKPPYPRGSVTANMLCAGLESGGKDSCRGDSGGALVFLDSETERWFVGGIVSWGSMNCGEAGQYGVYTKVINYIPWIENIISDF

As for `Cc1nc(N)ccc1CNC(=O)[C@@H]1CCCN1C(=O)[C@H]1C[C@H](Cc2ccc(Br)cc2)CN1` [compound 1465, (S)—N-((6-Amino-2-methylpyridin-3-yl)methyl)-1-((2R,4S)-4-(4-bromobenzyl)pyrrolidine-2-carbonyl)pyrrolidine-2-carboxamide Di-trifluoroacetate salt], the Ki on MASP-2 (CCP1-CCP2-SP) (read-out: MASP-2 Ki) is < 500 nM; at mMASP-2, 500 to 2500 nM; on human α-thrombin (read-out: Thrombin Ki), < 0.5 µM. For the same compound, the “MASP-2 vs. thrombin selectivity” value at MASP-2 (CCP1-CCP2-SP) (setting [1]) was “* (≥1.0 to <5.0-fold)”.

For `Cc1nc(N)ccc1CNC(=O)[C@H](C)NC(=O)[C@H]1C[C@H](Cc2ccc(F)c(Cl)c2)CN1CCC(=O)O` [compound 1473, 3-((2R,4S)-2-(((S)-1-(((6-Amino-2-methylpyridin-3-yl)methyl)amino)-1-oxopropan-2-yl)carbamoyl)-4-(3-chloro-4-fluorobenzyl)pyrrolidin-1-yl)propanoic acid Trifluoroacetate salt], the Ki on MASP-2 (CCP1-CCP2-SP) (read-out: MASP-2 Ki) was < 500 nM; at mMASP-2 it was < 500 nM; on human α-thrombin (read-out: Thrombin Ki), > 25 µM.

For the compound `C[C@H](NC(=O)[C@H]1C[C@@H](c2cccc(C#N)c2)CN1)C(=O)NCc1ccc(C(=N)N)cc1` [compound 1278, (2R,4S)—N—((S)-1-((4-Carbamimidoylbenzyl)amino)-1-oxopropan-2-yl)-4-(3-cyanophenyl)pyrrolidine-2-carboxamide], the figures for the inhibition constant (Ki) on MASP-2 (CCP1-CCP2-SP) (read-out: MASP-2 Ki), on mMASP-2 and on human α-thrombin (Thrombin Ki (μM)) were < 500 nM, < 500 nM and 2.5 to 10 µM, respectively. Also, the “MASP-2 vs. thrombin selectivity” value on MASP-2 (CCP1-CCP2-SP) (setting [1]) was “*** (≥25 to <100-fold)”.

As to `C[C@H](NC(=O)[C@H]1C[C@H](c2ccccc2)CN1)C(=O)NCc1cc(Cl)c[nH]c1=O` [compound 1301, (2R,4R)—N—((S)-1-(((5-Chloro-2-oxo-1,2-dihydropyridin-3-yl)methyl)amino)-1-oxopropan-2-yl)-4-phenylpyrrolidine-2-carboxamide Hydrochloride], the Ki at MASP-2 (CCP1-CCP2-SP) is 2500 to 10000 nM; at mMASP-2, > 25000 nM; on human α-thrombin (read-out: Thrombin Ki), > 25 µM.

`C[C@H](NC(=O)[C@H](N)Cc1cccc2ccccc12)C(=O)NCc1ccc(C(=N)N)cc1` [compound 1092]: at MASP-2 (CCP1-CCP2-SP) (setting [2]), the “MASP-2 vs. thrombin selectivity” value is “−− (less than 1.0-fold)”. Further, the inhibition constant (Ki) is < 500 nM on MASP-2 (CCP1-CCP2-SP) (read-out: MASP-2 Ki), < 500 nM on mMASP-2 and < 0.5 µM on human α-thrombin (read-out: Thrombin Ki).

`N=C(N)c1ccc(CNC(=O)[C@H](CCC(N)=O)NC(=O)[C@H](N)CCc2ccccc2)cc1` [compound 1335, (S)-2-((R)-2-Amino-4-phenylbutanamido)-N-(4-carbamimidoylbenzyl)pentanediamide Di-trifluoroacetate]: the inhibitory constant (Ki) at MASP-2 (CCP1-CCP2-SP) (read-out: MASP-2 Ki) is < 500 nM; at mMASP-2 it was < 500 nM; on human α-thrombin (Thrombin Ki (μM)), 2.5 to 10 µM. Also, the “MASP-2 vs. thrombin selectivity” value on MASP-2 (CCP1-CCP2-SP) (setting [1]) is on record as “*** (≥25 to <100-fold)”.

With `C[C@H](NC(=O)[C@H]1C[C@H](c2ccccc2)CN1)C(=O)NCc1cc2c(Br)cncc2[nH]1` [compound 1493, (2R,4R)—N—((S)-1-(((4-Bromo-1H-pyrrolo[2,3-c]pyridin-2-yl)methyl)amino)-1-oxopropan-2-yl)-4-phenylpyrrolidine-2-carboxamide Di-trifluoroacetate salt], the Ki was 10000 to 25000 nM at MASP-2 (CCP1-CCP2-SP), > 25000 nM on mMASP-2 and 10 to 25 µM at human α-thrombin (Thrombin Ki (μM)). Also, the “MASP-2 vs. thrombin selectivity” value at MASP-2 (CCP1-CCP2-SP) (setting [1]) is reported as “* (≥1.0 to <5.0-fold)”.

Take `C[C@H](NC(=O)[C@@H](CCc1ccccc1)NCc1ccc[nH]1)C(=O)NCc1ccc(C(=N)N)cc1` [compound 1128]: the “MASP-2 vs. thrombin selectivity” value on MASP-2 (CCP1-CCP2-SP) (setting [2]) is on record as “* (1.0 to 5.0-fold)”. Moreover, the values for the inhibition constant (Ki) on MASP-2 (CCP1-CCP2-SP) (read-out: MASP-2 Ki), on mMASP-2 and at human α-thrombin (read-out: Thrombin Ki) were < 500 nM, < 500 nM and < 0.5 µM, respectively.

Consider `Cc1nc(N)ccc1CNC(=O)[C@H](C)NC(=O)[C@@H](CCc1ccccc1)NCCc1cccc(O)c1` [compound 1349, (R)—N—((S)-1-(((6-Amino-2-methylpyridin-3-yl)methyl)amino)-1-oxopropan-2-yl)-2-((3-hydroxyphenethyl)amino)-4-phenylbutanamide Dihydrochloride], for which the Ki at MASP-2 (CCP1-CCP2-SP) is 500 to 2500 nM; at mMASP-2, 2500 to 10000 nM; on human α-thrombin (read-out: Thrombin Ki), > 25 µM. Also, the “MASP-2 vs. thrombin selectivity” value at MASP-2 (CCP1-CCP2-SP) (setting [1]) was “** (≥5.0 to <25-fold)”.

`C[C@H](NC(=O)[C@H]1C[C@H](c2ccccc2)CN1)C(=O)NCc1cnc2[nH]cc(Cl)c2c1` [compound 1329, (2R,4R)—N—((S)-1-(((3-chloro-1H-pyrrolo[2,3-b]pyridin-5-yl)methyl)amino)-1-oxopropan-2-yl)-4-phenylpyrrolidine-2-carboxamide Dihydrochloride]: the results for the Ki on MASP-2 (CCP1-CCP2-SP) (read-out: MASP-2 Ki), on mMASP-2 and at human α-thrombin (Thrombin Ki (μM)) were < 500 nM, < 500 nM and 0.5 to 2.5 µM, respectively. Further, the “MASP-2 vs. thrombin selectivity” value at MASP-2 (CCP1-CCP2-SP) (setting [1]) is reported as “* (≥1.0 to <5.0-fold)”.

With `C[C@H](NC(=O)[C@H](N)CCc1cccc(F)c1)C(=O)NCc1ccc(C(=N)N)cc1` [compound 1048], the “MASP-2 vs. thrombin selectivity” value at MASP-2 (CCP1-CCP2-SP) (setting [2]) is “** (5.0 to 25-fold)”. Moreover, the inhibition constant (Ki) is < 500 nM on MASP-2 (CCP1-CCP2-SP) (read-out: MASP-2 Ki), < 500 nM on mMASP-2 and < 0.5 µM on human α-thrombin (read-out: Thrombin Ki).

Regarding “(2R,4R)-4-([1,1′-Biphenyl]-3-yl)-N-((S)-1-(((6-amino-2-methylpyridin-3-yl)methyl)amino)-1-oxopropan-2-yl)pyrrolidine-2-carboxamide Di-trifluoroacetate salt [compound 1359]”, the Ki on mMASP-2 was 10000 to 25000 nM.

With `Cc1nc(N)ccc1CNC(=O)[C@H](C)NC(=O)[C@H]1C[C@H](Cc2cccc(C(F)(F)F)c2)CN1` [compound 1318, (2R,4S)—N—((S)-1-(((6-Amino-2-methylpyridin-3-yl)methyl)amino)-1-oxopropan-2-yl)-4-(3-(trifluoromethyl)benzyl)pyrrolidine-2-carboxamide Dihydrochloride], the Ki at MASP-2 (CCP1-CCP2-SP) (read-out: MASP-2 Ki) and at mMASP-2 was < 500 nM each time.

Turning to `C[C@H](NC(=O)[C@H]1C[C@@H](c2ccccc2)CCN1)C(=O)NCc1ccc(C(=N)N)cc1` [compound 1230, (2R,4S)—N—((S)-1-((4-Carbamimidoylbenzyl)amino)-1-oxopropan-2-yl)-4-phenylpiperidine-2-carboxamide], at mMASP-2, the inhibition constant (Ki) is < 500 nM.

`C[C@H](NC(=O)[C@H](N)CCc1ccccc1)C(=O)NCc1ccc2c(N)n[nH]c2c1` [compound 1039]: the inhibition constant (Ki) on mMASP-2 was < 25000 nM; at human α-thrombin (read-out: Thrombin Ki) it was > 25 µM.

For the compound `C[C@H](NC(=O)[C@@H]1C[C@@H](c2ccccc2)CCN1)C(=O)NCc1ccc(C(=N)N)cc1` [compound 1486, (2S,4S)—N—((S)-1-((4-carbamimidoylbenzyl)amino)-1-oxopropan-2-yl)-4-phenylpiperidine-2-carboxamide Dihydrochloride], at mMASP-2, the inhibition constant (Ki) is < 500 nM.

Turning to `C[C@H](NC(=O)[C@H]1C[C@H](c2ccccc2)CCN1)C(=O)NCc1ccc(C(=N)N)cc1` [compound 1485, (2R,4R)—N—((S)-1-((4-carbamimidoylbenzyl)amino)-1-oxopropan-2-yl)-4-phenylpiperidine-2-carboxamide Dihydrochloride], on mMASP-2, the Ki is < 500 nM.

`C[C@H](NC(=O)[C@H](N)CCc1ccccc1)C(=O)NCCOc1ccc(N)nc1` [compound 1215]: the inhibitory constant (Ki) was < 25000 nM on mMASP-2 and > 25 µM on human α-thrombin (read-out: Thrombin Ki).

For the compound `Cc1nc(N)ccc1CNC(=O)[C@H](C)NC(=O)[C@H]1C[C@H](c2cccc3ccccc23)CCN1` [compound 1342, (2R,4R)—N—((S)-1-(((6-Amino-2-methylpyridin-3-yl)methyl)amino)-1-oxopropan-2-yl)-4-(naphthalen-1-yl)piperidine-2-carboxamide Dihydrochloride], the Ki at MASP-2 (CCP1-CCP2-SP) (read-out: MASP-2 Ki) was < 500 nM; at mMASP-2, 500 to 2500 nM.

For `C[C@H](NC(=O)[C@H]1C[C@](O)(c2ccccc2)CN1)C(=O)NCc1ccc(C(=N)N)cc1` [compound 1071], on mMASP-2, the Ki is < 500 nM.

In the case of `C[C@H](NC(=O)C1CCC(c2ccccc2)CN1)C(=O)NCc1ccc(C(=N)N)cc1` (single isomer, unassigned) [compound 1067], the Ki at mMASP-2 was < 500 nM.

In the case of `Cc1ccc(CC[C@@H](N)C(=O)N[C@@H](C)C(=O)NCc2ccc(C(=N)N)cc2)cc1` [compound 1043], the inhibition constant (Ki) on mMASP-2 is < 500 nM.

On to `Cc1nc(N)ccc1CNC(=O)[C@H](C)NC(=O)[C@H]1C[C@@H](c2cccc3ccccc23)CCN1` [compound 1297, (2R,4S)—N—((S)-1-(((6-Amino-2-methylpyridin-3-yl)methyl)amino)-1-oxopropan-2-yl)-4-(naphthalen-1-yl)piperidine-2-carboxamide Dihydrochloride], for which the inhibition constant Ki at MASP-2 (CCP1-CCP2-SP) (read-out: MASP-2 Ki) and at mMASP-2 was < 500 nM each time.

As for `N=C(N)c1ccc(CNC(=O)[C@@H]2CCN2C(=O)[C@H](NCC(=O)O)C2CCCCC2)cc1` [compound 999, melagatran, reference compound], the inhibition constant Ki on mMASP-2 was < 500 nM.

Turning to `C[C@H](OC(=O)[C@H](N)CCc1ccccc1)C(=O)NCc1ccc(C(=N)N)cc1` [compound 1315, (S)-1-((4-Carbamimidoylbenzyl)amino)-1-oxopropan-2-yl (R)-2-amino-4-phenylbutanoate Hydrochloride], the “MASP-2 vs. thrombin selectivity” value on MASP-2 (CCP1-CCP2-SP) (setting [1]) is given as “* (≥1.0 to <5.0-fold)”. The inhibition constant Ki at mMASP-2 was < 500 nM.

For `C[C@H](NC(=O)c1cc(-c2cccc3ccccc23)c[nH]1)C(=O)NCc1ccc(C(=N)N)cc1` [compound 1234, (S)—N-(1-((4-Carbamimidoylbenzyl)amino)-1-oxopropan-2-yl)-4-(naphthalen-1-yl)-1H-pyrrole-2-carboxamide], the Ki on MASP-2 (CCP1-CCP2-SP) (read-out: MASP-2 Ki) and on mMASP-2 was < 500 nM in each case.

With `C[C@H](NC(=O)[C@H]1C[C@@H](c2ccccc2)CCN1)C(=O)NCc1ccc(C(=N)N)cc1` [compound 1065], the inhibitory constant (Ki) at mMASP-2 was < 500 nM.

On to `C[C@H](NC(=O)[C@H](N)CCc1cccc(C(F)(F)F)c1)C(=O)NCc1ccc(C(=N)N)cc1` [compound 1120], for which the “MASP-2 vs. thrombin selectivity” value at MASP-2 (CCP1-CCP2-SP) (setting [2]) is on record as “** (5.0 to 25-fold)”. The inhibitory constant (Ki) was < 500 nM on MASP-2 (CCP1-CCP2-SP) (read-out: MASP-2 Ki) and < 0.5 µM at human α-thrombin (read-out: Thrombin Ki).

Turning to `C[C@H](NC(=O)[C@H]1C[C@](O)(c2ccccc2)CCN1)C(=O)NCc1ccc(C(=N)N)cc1` [compound 1101], the Ki at mMASP-2 was < 500 nM.

The term Ki denotes the dissociation constant of the complex between target and ligand, obtained from inhibition or displacement.
